Results reported in patent US20090192198A1, “INHIBITORS OF THE 11-BETA-HYDROXYSTEROID DEHYDROGENASE TYPE 1 ENZYME” (Abbott Laboratories, priority 2005, published 2009).

Key:
Male CD-1 mice [1] = test: 24-hour inhibitory avoidance task in mice, drug-in-diet dosing; type: in vivo; conditions: drug-in-diet 10 and 100 mg/kg/day in Western diet, tested from day 17, vs vehicle control mice (FIG. 1)
Protocol: The 24-hour inhibitory avoidance task in mice is a measure of one-trial learning and memory consolidation in response to a discrete aversive event (foot-shock). Mice are first placed in an illuminated compartment of a two-compartment apparatus. Mice will naturally step through into an adjoining dark compartment, which they prefer. When the mice enter the dark they receive a mild foot-shock. To assess memory, mice are tested 24 hours later and the length of time the animal refrains from entering the dark compartment is recorded (higher latencies indicate improved memory for the aversive event).
(§1) Male CD-1 mice were obtained from Charles River, Wilmington, Mass. Mice were group-housed 10 per cage. The body weight upon arrival was 20-25 g. Food and water were available ad libitum except during experiments. […]
On the first day of testing (17 days after drug-in-diet was presented) mice were removed from the colony room in their home cage, brought to the testing room, and left undisturbed for 2 hours prior to testing initiation. […] The latency to enter the dark chamber was recorded and was the dependent variable measured for assessing memory retention (latency is defined as entry of the whole mouse; all 4 paws on the grids in the dark side, plus the tail in the chamber for 5 sec; 180 sec is maximum latency). Data were analyzed using Mann Whitney U comparisons. […]

HSD-1 = test: Monkey ex vivo HSD1 activity (cortisone to cortisol in harvested tissue); design: species or system Cynomolgus Monkeys
Protocol: Harvested tissues (approximately 150 mg) were minced into small, 2 mm pieces in the presence of 5× volume of incubation buffer. Cortisone at final concentrations of 0, 3, 10 or 30 μM was added to each well. Cell culture plates with tissues were incubated at 37° C. for three hours. Two-hundred μL of tissue culture supernatant was then removed and spun at 1000 rpm in an Eppindorf tube, and then 100 μL of resulting supernatant was aliquotted into two tubes for LCMS analysis of cortisol.

Male CD-1 mice [2] = test: 24-hour inhibitory avoidance in mice, subchronic (3 administration) dosing; type: in vivo; conditions: 30 mg/kg PO, BID the day before training and one hour before training, vs vehicle control mice (FIG. 3)
Protocol: Male CD-1 mice were obtained from Charles River, Wilmington, Mass. Mice were group-housed 10 per cage. The body weight upon arrival was 20-25 g. Food and water were available ad libitum except during experiments. Animals were acclimated to the animal facilities for a period of at least one week prior to commencement of experiments. Animals were tested in the light phase of a 12-hour light:12-hour dark schedule (lights on 0600 hours).
Compound AA and Compound BB were synthesized at Abbott Laboratories. […] Compound AA was administered in a cloudy, fine suspension, while Compound BB was administered in a solution.
On training day, mice were injected with Compound AA, Compound BB or vehicle one-hour PO before training. One hour following injection (start of training) mice were subjected to a training session in which they were placed in a lighted compartment of a two-compartment chamber (Gemini apparatus, San Diego Instruments, San Diego, Calif.) with a manually operated gate separating the compartments. […] Twenty-four hours later mice were again tested in the same apparatus, except without shock, and the transfer latency from the lighted to the dark compartment recorded and used as an index of memory for the punished response 24 hours earlier. […] Data were analyzed using Mann Whitney U comparisons. […]

phosphorylated CREB = test: Phosphorylated CREB immunohistochemistry in brain after food-in-diet dosing; type: in vivo, mice; conditions: 18 days food-in-diet, 10 and 100 mg/kg/day (FIG. 2)
Protocol: In vivo signaling studies were conducted to examine the biochemical pathways that may be mechanistically involved in the cognitive efficacy associated with Compound AA. An important signaling process that serves as a biochemical correlate of synaptic plasticity underlying learning and memory is the phosphorylation of CREB (c-AMP-response element binding protein), a transcription factor critical to long-term memory.
as §1
Following perfusion, brains were removed and postfixed in 20% sucrose-PBS (phosphate buffered saline) overnight and subsequently cut on a cryostat (40 μm coronal sections) and collected as free-floating sections in PBS. […] Immuno-reactivity (IR) was quantified using an image analysis system (Leica, Quantimet 500) that determined number and/or area of peroxidase substrate-positive stained neurons from digitized photomicrographs according to a pixel gray level empirically determined prior to analysis. Overall statistical significance was determined using a one-way ANOVA, with Dunnett's post hoc analyses used to determine significance (p<0.05 was considered significant).

CC(C)(Oc1ccc(F)cc1Cl)C(=O)NC1C2CC3CC1CC(S(C)(=O)=O)(C3)C2 (stereo not shown) [S, 2-(2-Chloro-4-fluorophenoxy)-2-methyl-N-[(E)-5-(methylsulfonyl)-2-adamantyl]propanamide]
memory retention (Mean Transfer Latency), 24-hour inhibitory avoidance (Male CD-1 mice [1]): significant improvement in memory retention
ex vivo inhibition of monkey brain, fat and liver HSD1 (HSD-1; 2.5 and 16 hours following a single oral 10 mg/kg dose): potent ex vivo inhibition
HSD-1 ex vivo activity, Mean % Veh Control (HSD-1; Cerebral Cortex, 16 hours after single 10 mg/kg oral dose): 30%
HSD-1 ex vivo activity, Mean % Veh Control (HSD-1; Hippocampus, 16 hours after single 10 mg/kg oral dose): 42%
HSD-1 ex vivo activity, Mean % Veh Control (HSD-1; Liver, 2.5 hours after single 10 mg/kg oral dose): 38%
HSD-1 ex vivo activity, Mean % Veh Control (HSD-1; Liver, 16 hours after single 10 mg/kg oral dose): 9%
HSD-1 ex vivo activity, Mean % Veh Control (HSD-1; Mesenteric Fat, 2.5 hours after single 10 mg/kg oral dose): 90%
HSD-1 ex vivo activity, Mean % Veh Control (HSD-1; Mesenteric Fat, 16 hours after single 10 mg/kg oral dose): 50%
memory retention (transfer latency), 24-hour inhibitory avoidance (Male CD-1 mice [2]): significant improvement in memory retention
phosphorylated CREB immuno-reactivity (phosphorylated CREB): increase in phosphorylated CREB
